According to the supplement of paper PMC13380429:

How the values were obtained:
Conditions in all cases: 72 h
Caco-2 [1] = assay: relative viability EC50 (midpoint between 100% and the lowest measured viability); higher = less toxic
Vero E6 [2] = assay: as above
U2OS [3] = assay: as above
HepG2 [4] = assay: as above
Calu-3 [5] = assay: as above
Caco-2 [6] = assay: drug sensitivity score (DSS) for viability; higher = more toxic; extreme values may be limits of the assay
Vero E6 [7] = assay: as above
U2OS [8] = assay: as above
HepG2 [9] = assay: as above
Calu-3 [10] = assay: as above
Caco-2 [11] = assay: cell viability relative to DMSO; higher = less toxic
Vero E6 [12] = assay: as above
U2OS [13] = assay: as above
HepG2 [14] = assay: as above
Calu-3 [15] = assay: as above

Structure (SMILES)	relative viability EC50 (Caco-2 [1]) [µM]	relative viability EC50 (Vero E6 [2]) [µM]	relative viability EC50 (U2OS [3]) [µM]	relative viability EC50 (HepG2 [4]) [µM]	relative viability EC50 (Calu-3 [5]) [µM]	drug sensitivity score (Caco-2 [6])	drug sensitivity score (Vero E6 [7])	drug sensitivity score (U2OS [8])	drug sensitivity score (HepG2 [9])	drug sensitivity score (Calu-3 [10])	cell viability (Caco-2 [11]; 1 nM) [%]	cell viability (Caco-2 [11]; 10 nM) [%]	cell viability (Caco-2 [11]; 100 nM) [%]	cell viability (Caco-2 [11]; 1000 nM) [%]	cell viability (Caco-2 [11]; 10000 nM) [%]	cell viability (Vero E6 [12]; 1 nM) [%]	cell viability (Vero E6 [12]; 10 nM) [%]	cell viability (Vero E6 [12]; 100 nM) [%]	cell viability (Vero E6 [12]; 1000 nM) [%]	cell viability (Vero E6 [12]; 10000 nM) [%]	cell viability (U2OS [13]; 1 nM) [%]	cell viability (U2OS [13]; 10 nM) [%]	cell viability (U2OS [13]; 100 nM) [%]	cell viability (U2OS [13]; 1000 nM) [%]	cell viability (U2OS [13]; 10000 nM) [%]	cell viability (HepG2 [14]; 1 nM) [%]	cell viability (HepG2 [14]; 10 nM) [%]	cell viability (HepG2 [14]; 100 nM) [%]	cell viability (HepG2 [14]; 1000 nM) [%]	cell viability (HepG2 [14]; 10000 nM) [%]	cell viability (Calu-3 [15]; 1 nM) [%]	cell viability (Calu-3 [15]; 10 nM) [%]	cell viability (Calu-3 [15]; 100 nM) [%]	cell viability (Calu-3 [15]; 1000 nM) [%]	cell viability (Calu-3 [15]; 10000 nM) [%]
CC(C)(C)c1ccc(S(=O)(=O)NCc2ccc(C(=O)Nc3cccnc3)cc2)cc1 [STF-31]	2.26	3.2	0.698	1.45	3.48	7	5.4	13.6	8.1	4.7	96.7	99.3	96.2	89.6	5.5	103	102	106	101	2.9	103	98.8	106	28.8	0.2	105	103	106	76.5	16.9	90.7	96.3	100	106	7.7
C[C@H](CCC(=O)O)[C@H]1CC[C@H]2[C@@H]3C[C@H](O)[C@@H]4C[C@H](O)CC[C@]4(C)[C@H]3CC[C@]12C [Hyodeoxycholic acid (HDCA)]	> 10	> 10	> 10	> 10	> 10	0	0	0	0	0	88.5	100	99.3	101	106	92.3	95.4	95.2	94.3	108	95.8	103	105	104	104	95.6	102	104	93.9	106	108	103	87.8	107	101
C=C1/C(=C\C=C2/CCC[C@]3(C)[C@@H]([C@H](C)CCCC(O)(C(F)(F)F)C(F)(F)F)CC[C@@H]23)C[C@@H](O)C[C@@H]1O [falecalcitriol]	> 10	> 10	> 10	> 10	> 10	0	0	0	0	0	96.2	96.1	90.6	95.6	92.6	92.4	96.2	85.8	94.9	104	100	94.9	98.5	92.7	93.1	98.1	97	94.1	102	92.9	122	99.3	95.7	99.7	98.2
CC(C)(N)Cc1ccccc1 [phentermine]	> 10	> 10	> 10	> 10	> 10	0	0	0	0	0	108	108	99.8	96.3	95.8	102	92.1	102	100	96.3	97.4	96	100	95.5	103	98.5	98.2	109	92.3	94.8	93.3	81	97.4	104	98.4
CC1(C)[C@@H](O)CC[C@]2(C)[C@H]3C(=O)C=C4[C@@H]5C[C@@](C)(C(=O)O)CC[C@]5(C)CC[C@@]4(C)[C@]3(C)CC[C@@H]12 [enoxolone]	> 10	> 10	> 10	> 10	> 10	0	0	0	0	0	96.6	101	97	87.2	96.3	93.1	99.8	95.2	103	92.5	99.4	93.2	95.4	99.6	98.6	75.2	90.9	87	95.9	96	110	106	98.6	105	99.1
NCC[C@H](O)C(=O)N[C@@H]1C[C@H](N)[C@@H](O[C@H]2O[C@H](CN)[C@@H](O)[C@H](O)[C@H]2O)[C@H](O)[C@H]1O[C@H]1O[C@H](CO)[C@@H](O)[C@H](N)[C@H]1O [amikacin]	> 10	> 10	> 10	> 10	> 10	0	0	0	0	0	95.7	103	99.5	104	104	94.8	98.5	96.9	94.5	103	97.5	98.3	98.9	103	97.9	101	104	96.6	92.6	113	100	99.7	94.9	105	91.5
Cc1ccc(/N=C/N(C)/C=N/c2ccc(C)cc2C)c(C)c1 [amitraz]	> 10	> 10	> 10	> 10	> 10	0	0	0	0	0	94.1	99.5	91.8	104	88.1	94.8	103	95.8	95.6	104	101	99.2	94.6	95.5	87.8	96	81.2	103	87.4	92.2	95.1	104	98.1	105	96.1
